Tested on: ZFP64
Assay: qPCR relative expression (vs cycle 1, day 1, hour 0) in patients' whole blood
Type: in vivo, human
Conditions: HCC patients; Sorafenib 400 mg added to Resminostat 600 mg
Protocol: 2.5 ml whole blood from patients was collected in PAXgene™ tubes (BD Biosciences) that contain chemicals to lyse the erythrocytes, stabilize RNA from degradation by RNases and minimize ex vivo changes in gene expression. The samples were incubated at 20° C. to 25° C. for 2 hours and then frozen at −20° C. until purification of total RNA.
Total RNA was isolated from the whole blood samples stabilized in PAXgene™ buffer using a spin column based technique suitable for whole blood samples (like PAXgene™ Blood miRNA Kit or PAXgene™ Blood RNA Kit from Qiagen) according to the manufacturer's instructions. The purification began with a centrifugation step to pellet nucleic acids in the (PAXgene™ Blood RNA) tube. The resuspended pellet was incubated in buffers, optimized for maintenance of RNA stability together with proteinase K to bring about protein digestion. An additional centrifugation through the PAXgene™ Shredder spin column was carried out to homogenize the cell lysate and remove residual cell debris, and the supernatant of the flow-through fraction was transferred to a fresh microcentrifuge tube. Ethanol was added to adjust binding conditions, and the lysate was applied to a PAXgene™ RNA spin column. During a brief centrifugation, RNA was selectively bound to the PAXgene™ silica membrane as contaminants pass through. Remaining contaminants were removed in several efficient wash steps. Between the first and second wash steps, the membrane was treated with DNase I, as described herein below in 1.3 to remove trace amounts of bound DNA. After the wash steps, RNA was eluted in nuclease free water and heat-denatured.
The High-Capacity cDNA Reverse Transcription Kit (Applied Biosystems) was used for reverse transcription of total RNA into single stranded cDNA with the aid of random hexamer primers according to the manufacturer's instructions. Briefly, for the reaction mix total RNA was mixed with random primers in excess, 4 mM dNTP Mix, 2.5 U/reaction, reverse transcriptase and nuclease free water. The reverse transcription took place in a thermal cycler under the following conditions: 25° C. for 10 min, 37° C. for 120 min, 85° C. for 5 min, followed by 4° C. for cooling down the reaction. The reverse transcription can be done in principle as well with other reverse transcriptases, primers and temperature protocols. Whenever possible, 250 ng total RNA were reverse transcribed if not available, lower amounts were used.
Custom TaqMan® Arrays (Applied Biosystems) in Format 16 were designed for the gene expression analysis of biomarkers of the present invention and housekeeping genes as outlined in table 4. These arrays allow for qPCR analysis of 8 samples per card. Of course, all reactions can be done as well by conventional qPCR analysis with specific primers.
The reaction mix was transferred into the reaction chambers by centrifuging twice for 1 minute each at 330 g and 4° C. After sealing, the microfluidic cards were run on an AB7900HT instrument (Applied Biosystems). The software SDS 2.4 (Applied Biosystems) was employed for instrument control, data acquisition and raw data analysis. The plates were run in Relative Quantification (ΔΔCt) mode, and the following temperature profile was used:
This analysis was carried out for each patient separately. The first sample (cycle 1, day 1, hour 0) was used as the reference sample. The ‘exprs’ value indicates relative expression levels (fold change values) for individual samples.
Table 5 contains the median expression level values for treatment day 5 (cycle 1, day 5, hours 0, 2, and 5) at a daily dose of 600 mg or 800 mg Resminostat mesylate salt is given below.

CNC(=O)c1cc(Oc2ccc(NC(=O)Nc3ccc(Cl)c(C(F)(F)F)c3)cc2)ccn1 [sorafenib, reference compound]
Effect of additional administration on ZFP64 expression (FIG. 4b): does not affect

Source: patent US20160215348A1, “GENE EXPRESSION BIOMARKERS AND THEIR USE FOR DIAGNOSTIC AND PROGNOSTIC APPLICATION IN PATIENTS POTENTIALLY IN NEED OF HDAC INHIBITOR TREATMENT” (4SC AG, priority 2013, published 2016)
